Columns and labels:
[1] = tested on: brassinosteroid biosynthesis; assay: action on plants when used at a high concentration
From the text: Methods of application and doses of the metabolism inhibitor of the present invention can be suitably chosen by those skilled in the art depending on conditions including a purpose of application, a dosage form, a plot to be treated and the like. […] Such a phenomenon is recognized in difenoconazole, Brz217, Brz218, Brz224, Brz225 and the like, which are typical examples of the metabolism inhibitor of the present invention. Therefore, the metabolism inhibitor of the present invention is preferably applied to plants at a relatively low concentration. However, concentrations to achieve optimum action can be appropriately determined by those skilled in the art by referring to the following examples.

[2] = tested on: metabolism of brassinolide; assay: brassinolide metabolism in cell free system (degradation associated with oxidation of the 26th position of brassinolide); type: biochemical; conditions: cell free system from immature seeds of Pisum sativum
Method: To examine whether the accelerating activity on elongation of the cress hypocotyl was on the basis of the inhibitory activity against the metabolism of brassinolide, which is considered to be a practically active brassinosteroid, activity of the compounds was examined in degradation system associated with oxidation of the 26th position of brassinolide. Immature seeds of Pisum sativum were used as plant materials. Brassinolide was added to a cell free system, and metabolic activity was determined by quantifying the compound at the right end in the following scheme to examine inhibitory action of difenoconazole against metabolism. [drawing 6]

| Structure (SMILES) | action at a high concentration, opposite to the action of the metabolism inhibitor [1] | Ratio of metabolism inhibition degree (%) relative to control ([2]; 0.01 μM) | Ratio of metabolism inhibition degree (%) relative to control ([2]; 0.1 μM) | Ratio of metabolism inhibition degree (%) relative to control ([2]; 1.0 μM) | Ratio of metabolism inhibition degree (%) relative to control ([2]; 10 μM) |
| --- | --- | --- | --- | --- | --- |
| CC1COC(Cn2cncn2)(c2ccc(Oc3ccc(Cl)cc3)cc2Cl)O1 (stereo not drawn) [Difenoconazole, difenoconazole] | inhibit brassinosteroid biosynthesis when used at a high concentration | 0% | 7% | 72% | 76% |
| COCC1COC(Cn2cncn2)(c2ccc(Cl)cc2)O1 (stereo not drawn) [Brz225] | inhibit brassinosteroid biosynthesis when used at a high concentration |  |  |  |  |
| CCCC1COC(Cn2cncn2)(c2cccc(Cl)c2)O1 (stereo not drawn) [Brz218] | inhibit brassinosteroid biosynthesis when used at a high concentration |  |  |  |  |
| CCCC1COC(Cn2cncn2)(c2ccccc2Cl)O1 (stereo not drawn) [Brz217] | inhibit brassinosteroid biosynthesis when used at a high concentration |  |  |  |  |
| CCCC1COC(Cn2cncn2)(c2ccc(OC)cc2)O1 (stereo not drawn) [Brz224] | inhibit brassinosteroid biosynthesis when used at a high concentration |  |  |  |  |

— patent US6989351B2, “Metabolic inhibitors against brassinosteroids” (Riken, priority 2000, dated 2006)
